Biological target: T1, human adenosine A2A receptor (Homo sapiens, UniProt P29274)
T1 construct: expressed in transfected cells; host or cells: CHO cells, semliki forest virus expression system; membrane preparation
Assay: Human adenosine A2A receptor [3H]-SCH-583261 binding assay (SPA, CHO cell membranes)
Details: [3H]-SCH-583261 1 nM, membranes of CHO cells expressing the recombinant receptor, Ki by Cheng-Prussoff equation; for Ki: read-out: hA2 (pKi) (converted)
Procedure: Human Adenosine A2A Receptor
The human adenosine A2A receptor was recombinantly expressed in chinese hamster ovary (CHO) cells using the semliki forest virus expression system. Cells were harvested, washed twice by centrifugation, homogenised and again washed by centrifugation. The final washed membrane pellet was suspended in a Tris (50 mM) buffer containing 120 mM NaCl, 5 mM KCl, 2 mM CaCl2 and 10 mM MgCl2 (pH 7.4) (buffer A). The [^3H]-SCH-583261 (Dionisotti et al., 1997, Br J Pharmacol 121, 353; 1 nM) binding assay was carried out in 96-well plates in the presence of 2.5 μg of membrane protein, 0.5 mg of Ysi-poly-1-lysine SPA beads and 0.1 U adenosine deaminiase in a final volume of 200 μl of buffer A. Non-specific binding was defined using xainthine amine congener (XAC; 2 μM). Compounds were tested at 10 concentrations from 10 μM-0.3 nM. All assays were conducted in duplicate and repeated at least two times. Assay plates were incubated for 1 hour at room temperature before centrifugation and then bound ligand determined using a Packard Topcount scintillation counter. IC50 values were calculated using a non-linear curve fitting program and Ki values calculated using the Cheng-Prussoff equation.

T1 sequence (P29274 whole entry): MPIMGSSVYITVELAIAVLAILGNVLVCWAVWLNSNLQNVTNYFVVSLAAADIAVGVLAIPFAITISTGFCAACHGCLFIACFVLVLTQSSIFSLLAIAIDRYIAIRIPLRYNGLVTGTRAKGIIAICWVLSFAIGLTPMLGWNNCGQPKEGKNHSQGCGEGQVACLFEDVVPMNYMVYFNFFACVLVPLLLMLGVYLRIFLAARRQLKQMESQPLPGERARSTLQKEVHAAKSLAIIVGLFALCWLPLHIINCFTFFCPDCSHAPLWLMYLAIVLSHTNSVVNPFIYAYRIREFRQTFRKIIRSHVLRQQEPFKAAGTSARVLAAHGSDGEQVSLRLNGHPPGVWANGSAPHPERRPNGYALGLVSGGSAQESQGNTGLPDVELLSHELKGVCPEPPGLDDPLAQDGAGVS

Row | Structure (SMILES) | Ki | hA2 (pKi)
1 | COc1ccc(N2CCOCC2)c2sc(NC(=O)c3ccnc(N(C)C4CCCCC4)c3)nc12 [Example 95, 2-(Cyclohexyl-methyl-amino)-N-(4-methoxy-7-morpholin-4-yl-benzothiazol-2-yl)-isonicotinamide] | 1.91 nM | –
2 | COc1ccc(N2CCOCC2)c2sc(NC(=O)c3ccnc(CN4CCCC4)c3)nc12 [Example 54, N-(4-Methoxy-7-morpholin-4-yl-benzothiazol-2-yl)-2-pyrrolidin-1-ylmethyl-isonicotinamide] | 2 nM | –
3 | COc1ccc(N2CCOCC2)c2sc(NC(=O)c3ccnc(N4CCN(C)CC4)c3)nc12 [Example 10, N-(4-Methoxy-7-morpholin-4-yl-benzothiazol-2-yl)-2-(4-methyl-piperazin-1-yl)-isonicotinamide] | 0.724 nM | –
4 | COc1ccc(N2CCCCC2)c2sc(NC(=O)c3ccnc(CN4CCCC4)c3)nc12 [Example 70, N-(4-Methoxy-7-piperidin-1-yl-benzothiazol-2-yl)-2-pyrrolidin-1-yl-methyl-isonicotinamide] | – | 8.9
5 | CNCc1cc(C(=O)Nc2nc3c(OC)ccc(N4CCOCC4)c3s2)ccn1 [Example 58, N-(4-Methoxy-7-morpholin-4-yl-benzothiazol-2-yl)-2-methylaminomethyl-isonicotinamide] | 2 nM | –
6 | COc1ccc(N2CCOCC2)c2sc(NC(=O)c3ccnc(N4C[C@@H]5C[C@H]4CO5)c3)nc12 [Example 31, N-(4-Methoxy-7-morpholin-4-yl-benzothiazol-2-yl)-2-{(1S,4S)-2-oxa-5-aza-bicyclo[2.2.1]hept-5-yl}-isonicotinamide] | 1 nM | –
7 | COc1ccc(N2CCOCC2)c2sc(NC(=O)c3ccnc(OCCN(C)C)c3)nc12 [Example 86, 2-(2-Dimethylamino-ethoxy)-N-(4-methoxy-7-morpholin-4-yl-benzothiazol-2-yl)-isonicotinamide] | 0.501 nM | –
8 | COc1cc(C(=O)Nc2nc3c(OC)ccc(N4CCOCC4)c3s2)ccn1 [Example 5, 2-Methoxy-N-(4-methoxy-7-morpholin-4-yl-benzothiazol-2-yl)-isonicotinamide] | 2.63 nM | –
9 | COc1ccc(N2CCOCC2)c2sc(NC(=O)c3ccnc(NCCNC(C)=O)c3)nc12 [Example 15, 2-(2-Acetylamino-ethylamino)-N-(4-methoxy-7-morpholin-4-yl-benzothiazol-2-yl)-isonicotinamide] | 1.91 nM | –
10 | CCCNc1cc(C(=O)Nc2nc3c(OC)ccc(N4CCOCC4)c3s2)ccn1 [Example 93, N-(4-Methoxy-7-morpholin-4-yl-benzothiazol-2-yl)-2-propylamino-isonicotinamide] | 1.07 nM | –
11 | COc1ccc(N2CCOCC2)c2sc(NC(=O)c3ccnc(N(C)CCc4ccccc4)c3)nc12 [Example 97, N-(4-Methoxy-7-morpholin-4-yl-benzothiazol-2-yl)-2-(methyl-phenethyl-amino)-isonicotinamide] | 2.24 nM | –
12 | COCCOc1cc(C(=O)Nc2nc3c(OC)ccc(N4CCOCC4)c3s2)ccn1 [Example 1, 2-(2-Methoxy-ethoxy)-N-(4-methoxy-7-morpholin-4-yl-benzothiazol-2-yl)-isonicotinamide] | 3.16 nM | –
13 | CCOc1cc(C(=O)Nc2nc3c(OC)ccc(N4CCOCC4)c3s2)ccn1 [Example 3, 2-Ethoxy-N-(4-methoxy-7-morpholin-4-yl-benzothiazol-2-yl)-isonicotinamide] | 3.09 nM | –
14 | COc1cc(C(=O)Nc2nc3c(OC)ccc(-c4ccccc4)c3s2)ccn1 [Example 101, 2-Methoxy-N-(4-methoxy-7-phenyl-benzothiazol-2-yl)-isonicotinamide] | 1.26 nM | –
15 | COc1ccc(N2CCOCC2)c2sc(NC(=O)c3ccnc(OCc4ccccc4)c3)nc12 [Example 4, 2-Benzyloxy-N-(4-methoxy-7-morpholin-4-yl-benzothiazol-2-yl)-isonicotinamide] | 2.63 nM | –
16 | COc1ccc(N2CCOCC2)c2sc(NC(=O)c3ccnc(N4CC(O)C4)c3)nc12 [Example 74, 2-(3-Hydroxy-azetidin-1-yl)-N-(4-methoxy-7-morpholin-4-yl-benzothiazol-2-yl)-isonicotinamide] | 1.35 nM | –
17 | COc1ccc(N2CCOCC2)c2sc(NC(=O)c3ccnc(N4CCC4)c3)nc12 [Example 26, 2-Azetidin-1-yl-N-(4-methoxy-7-morpholin-4-yl-benzothiazol-2-yl)-isonicotinamide] | 0.955 nM | –
18 | COc1ccc(N2CCOCC2)c2sc(NC(=O)c3ccc(NCc4ccccn4)nc3)nc12 [Example 40, N-(4-Methoxy-7-morpholin-4-yl-benzothiazol-2-yl)-6-[(pyridin-2-ylmethyl)-amino]-nicotinamide] | 1.02 nM | –
19 | COc1ccc(N2CCOCC2)c2sc(NC(=O)c3ccnc(OC4CCCC4)c3)nc12 [Example 85, 2-Cyclopentyloxy-N-(4-methoxy-7-morpholin-4-yl-benzothiazol-2-yl)-isonicotinamide] | 2.95 nM | –
20 | COc1ccc(N2CCOCC2)c2sc(NC(=O)c3ccnc(SC)c3)nc12 [Example 80, N-(4-Methoxy-7-morpholin-4-yl-benzothiazol-2-yl)-2-methylsulfanyl-isonicotinamide] | 2.09 nM | –
21 | CCCN(C)c1cc(C(=O)Nc2nc3c(OC)ccc(N4CCOCC4)c3s2)ccn1 [Example 94, N-(4-Methoxy-7-morpholin-4-yl-benzothiazol-2-yl)-2-(methyl-propyl-amino)-isonicotinamide] | 1.2 nM | –
22 | COc1ccc(N2CCOCC2)c2sc(NC(=O)c3ccnc(OC(C)C)c3)nc12 [Example 77, 2-Isopropoxy-N-(4-methoxy-7-morpholin-4-yl-benzothiazol-2-yl)-isonicotinamide] | 2.88 nM | –
23 | COc1ccc(N2CCOCC2)c2sc(NC(=O)c3ccc(OC(C)C)nc3)nc12 [Example 44, 6-Isopropoxy-N-(4-methoxy-7-morpholin-4-yl-benzothiazol-2-yl)-nicotinamide] | 3.02 nM | –
24 | COc1ccc(N2CCCCC2)c2sc(NC(=O)c3ccnc(N4CCN(C)CC4)c3)nc12 [Example 100, N-(4-Methoxy-7-piperidin-1-yl-benzothiazol-2-yl)-2-(4-methyl-piperazin-1-yl)-isonicotinamide] | 1.55 nM | –
25 | COc1ccc(N2CCOCC2)c2sc(NC(=O)c3ccnc(C4CCCCC4)c3)nc12 [Example 24, 2-Cyclohexyl-N-(4-methoxy-7-morpholin-4-yl-benzothiazol-2-yl)-isonicotinamide] | 2.24 nM | –
26 | COc1ccc(N2CCOCC2)c2sc(NC(=O)c3ccnc(OCc4ccccn4)c3)nc12 [Example 6, N-(4-Methoxy-7-morpholin-4-yl-benzothiazol-2-yl)-2-(pyridin-2-ylmethoxy)-isonicotinamide] | 1.15 nM | –
27 | COc1ccc(N2CCOCC2)c2sc(NC(=O)c3ccnc(N(C)Cc4ccccc4)c3)nc12 [Example 96, 2-(Benzyl-methyl-amino)-N-(4-methoxy-7-morpholin-4-yl-benzothiazol-2-yl)-isonicotinamide] | 1.62 nM | –
28 | COc1ccc(N2CCOCC2)c2sc(NC(=O)c3ccnc(OCCNC(C)=O)c3)nc12 [Example 92, 2-(2-Acetylamino-ethoxy)-N-(4-methoxy-7-morpholin-4-yl-benzothiazol-2-yl)-isonicotinamide] | 1.58 nM | –
29 | COc1ccc(N2CCOCC2)c2sc(NC(=O)c3ccnc(OCCN4CCOCC4)c3)nc12 [Example 87, N-(4-Methoxy-7-morpholin-4-yl-benzothiazol-2-yl)-2-(2-morpholin-4-yl-ethoxy)-isonicotinamide] | 0.851 nM | –

Source: patent publication US6620811B2, “Isonicotin- and nicotinamide derivatives of benzothiazoles” (Hoffmann-La Roche Inc., priority 2001, dated 2003)
